{"source": "PubChem BioAssay AID652027", "about": "(The Scripps Research Institute Molecular Screening Center, 2013)", "note": "The source made the active and inactive calls.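 The calls were made as follows: active = STAT3 reporter signal fold change below 0.5 at 10 µM; inactive = the rest.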", "data": [{"system": "U3A cells, IL-6 STAT3 luciferase reporter, luminescence", "assay": "STAT3 signaling inhibitors in reporter cells, late-stage follow-up, counter-screen for STAT5 inhibitor project, U3A cells, luminescence, assay provider run (AID 652027)", "settings": "at 10 µM; stronger effect = lower value", "values": [{"smiles": "CN1/C(=C\\C(=O)CN2C(=O)NC(C)(c3ccc(Cl)cc3)C2=O)C(C)(C)c2ccccc21", "note": "(stereo not given)", "fold change": "0.75 (inactive)"}, {"smiles": "O=C(C[n+]1ccc2ccccc2c1)c1ccccc1", "fold change": "1.04 (inactive)"}, {"smiles": "CN1/C(=C\\C(=O)C[n+]2cccc(-c3ccccc3)c2)C(C)(C)c2ccccc21", "fold change": "0.55 (inactive)"}, {"smiles": "COc1cccc2cc(C(=O)C[n+]3ccc4ccccc4c3)c(=O)oc12", "fold change": "1.17 (inactive)"}, {"smiles": "Cc1cc[n+](CC(=O)/C=C2\\N(C)c3ccccc3C2(C)C)c(C)c1", "fold change": "0.61 (inactive)"}, {"smiles": "CC(C)(C)C(=O)C[n+]1ccc2ccccc2c1", "fold change": "0.93 (inactive)"}, {"smiles": "CN1/C(=C\\C(=O)Cn2c(=O)c(C#N)cn(C)c2=O)C(C)(C)c2ccccc21", "fold change": "1.03 (inactive)"}, {"smiles": "Cc1cc[n+](CC(=O)/C=C2\\N(C)c3ccccc3C2(C)C)cc1", "fold change": "0.68 (inactive)"}, {"smiles": "COc1ccc2oc(=O)c(C(=O)C[n+]3ccc4ccccc4c3)cc2c1", "fold change": "1.15 (inactive)"}, {"smiles": "CCOC(=O)C1CCCN(CC(=O)/C=C2/N(C)c3ccccc3C2(C)C)C1", "note": "(stereo not given)", "fold change": "1.16 (inactive)"}, {"smiles": "CN1/C(=C\\C(=O)Cn2nnc(-c3ccccc3)n2)C(C)(C)c2ccccc21", "fold change": "0.62 (inactive)"}, {"smiles": "O=C(C[n+]1ccc2ccccc2c1)Nc1ccccc1", "fold change": "1.74 (inactive)"}, {"smiles": "COC(=O)C1CCCCN1CC(=O)/C=C1/N(C)c2ccccc2C1(C)C", "note": "(stereo not given)", "fold change": "1.04 (inactive)"}, {"smiles": "CN1/C(=C\\C(=O)CN2C(=O)c3ccccc3C2=O)C(C)(C)c2ccccc21", "fold change": "0.87 (inactive)"}, {"smiles": "CN1/C(=C\\C(=O)CN2C(=O)c3ccccc3S2(=O)=O)C(C)(C)c2ccccc21", "fold change": "0.82 (inactive)"}, {"smiles": "CN1/C(=C\\C(=O)CN2CCCC2)C(C)(C)c2ccccc21", "fold change": "0.72 (inactive)"}, {"smiles": "CN1/C(=C\\C(=O)CN2C(=O)C3CC=CCC3C2=O)C(C)(C)c2ccccc21", "note": "(stereo not given)", "fold change": "0.7 (inactive)"}, {"smiles": "CN1/C(=C\\C(=O)Cn2cc(C(F)(F)F)ccc2=O)C(C)(C)c2ccccc21", "fold change": "1.09 (inactive)"}, {"smiles": "O=C(C[n+]1ccc2ccccc2c1)c1cc2ccccc2oc1=O", "fold change": "0.84 (inactive)"}, {"smiles": "CN1/C(=C\\C(=O)Cn2cnc3ccc(Cl)cc3c2=O)C(C)(C)c2ccccc21", "fold change": "0.92 (inactive)"}, {"smiles": "CN1/C(=C\\C(=O)CN2C(=O)c3ccccc3CS2(=O)=O)C(C)(C)c2ccccc21", "fold change": "0.65 (inactive)"}, {"smiles": "CN1/C(=C\\C(=O)CN2C(=O)c3ccc([N+](=O)[O-])cc3C2=O)C(C)(C)c2ccccc21", "fold change": "0.77 (inactive)"}, {"smiles": "CN1/C(=C\\C(=O)C[n+]2ccccc2)C(C)(C)c2ccccc21", "fold change": "0.77 (inactive)"}, {"smiles": "O=C(C[n+]1ccc2ccccc2c1)c1ccc2ccccc2c1", "fold change": "1.34 (inactive)"}, {"smiles": "CN1/C(=C\\C(=O)CN2CCc3ccccc3C2)C(C)(C)c2ccccc21", "fold change": "1.28 (inactive)"}]}]}
